From patent publication US8759354B2, “Pharmaceutical composition comprising pyrazine derivative, and method of using pyrazine derivative in combination” (priority 2007, dated 2014)
Where two headings read alike, the source gives them in different places.

Tests used:
[1] = tested on: Victoria/3/75 (H3N2) influenza virus; experiment: microbe, parasite or virus in culture; format: cell-based; settings: Influenza A virus, H3N2, MDCK, single use, read-out: Inhibition rate; for inhibition at 0.0125 µg/mL: 0.0125 μg/mL; for inhibition at 0.025 µg/mL: 0.025 μg/mL; for inhibition at 0.05 µg/mL: 0.05 μg/mL; for inhibition at 0.1 µg/mL: 0.1 μg/mL; for inhibition at 0.2 µg/mL: 0.2 μg/mL; for inhibition at 0.125 µg/mL: 0.125 μg/mL; for inhibition at 0.25 µg/mL: 0.25 μg/mL; for inhibition at 0.5 µg/mL: 0.5 μg/mL; for inhibition at 1 µg/mL: 1 μg/mL; for inhibition at 2 µg/mL: 2 μg/mL; for inhibition at 4 µg/mL: 4 μg/mL
[2] = tested on: influenza virus (PR/8 (H1N1)); experiment: microbe, parasite or virus in culture; format: cell-based; settings: unidentified influenza virus, MDCK; for inhibition at 0.00625 µg/mL: read-out: Inhibition rate, single use, 0.00625 μg/mL; for inhibition at 0.0125 µg/mL: read-out: Inhibition rate, single use, 0.0125 μg/mL; for inhibition at 0.025 µg/mL: read-out: Inhibition rate, single use, 0.025 μg/mL; for inhibition at 0.05 µg/mL: read-out: Inhibition rate, single use, 0.05 μg/mL; for inhibition at 0.1 µg/mL: read-out: Inhibition rate, single use, 0.1 μg/mL; for inhibition at 0.2 µg/mL: read-out: Inhibition rate, single use, 0.2 μg/mL; for inhibition at 0.4 µg/mL: read-out: Inhibition rate, single use, 0.4 μg/mL; for inhibition at 0.0625 µg/mL: read-out: Inhibition rate, single use, 0.0625 μg/mL; for inhibition at 0.125 µg/mL: read-out: Inhibition rate, single use, 0.125 μg/mL; for inhibition at 0.25 µg/mL: read-out: Inhibition rate, single use, 0.25 μg/mL; for inhibition at 0.5 µg/mL: read-out: Inhibition rate, single use, 0.5 μg/mL; for inhibition at 1 µg/mL: read-out: Inhibition rate, single use, 1 μg/mL; for inhibition at 2 µg/mL: read-out: Inhibition rate, single use, 2 μg/mL

CCC(CC)O[C@@H]1C=C(C(=O)O)C[C@H](N)[C@H]1NC(C)=O [GS-4071]
inhibition at 0.003125 µg/mL ([1]; 0.003125 μg/mL, Test Example 3): 8.6% | inhibition at 0.00625 µg/mL ([1]; 0.00625 μg/mL, Test Example 3): 14% | inhibition at 0.0125 µg/mL ([1]; Test Example 3): 44% | inhibition at 0.025 µg/mL ([1]; Test Example 3): 54% | inhibition at 0.05 µg/mL ([1]; Test Example 3): 68% | inhibition at 0.1 µg/mL ([1]; Test Example 3): 80% | inhibition at 0.2 µg/mL ([1]; Test Example 3): 88% | inhibition at 0.00313 µg/mL ([2]; read-out: Inhibition rate, single use, 0.00313 μg/mL, Test Example 1): 1.9% | inhibition at 0.00625 µg/mL ([2]; Test Example 1): 11% | inhibition at 0.0125 µg/mL ([2]; Test Example 1): 14% | inhibition at 0.025 µg/mL ([2]; Test Example 1): 25% | inhibition at 0.05 µg/mL ([2]; Test Example 1): 29% | inhibition at 0.1 µg/mL ([2]; Test Example 1): 42% | inhibition at 0.2 µg/mL ([2]; Test Example 1): 61% | inhibition at 0.4 µg/mL ([2]; Test Example 1): 73% | inhibition at 0.8 µg/mL ([2]; read-out: Inhibition rate, single use, 0.8 μg/mL, Test Example 1): 84%

NC(=O)c1nc(F)cnc1O [T-705, 6-Fluoro-3-hydroxy-2-pyrazinecarboxamide]
inhibition at 0.125 µg/mL ([1]; Test Example 3): 2.6% | inhibition at 0.125 µg/mL ([1]; Test Example 4): 2.6% | inhibition at 0.25 µg/mL ([1]; Test Example 3): 9% | inhibition at 0.25 µg/mL ([1]; Test Example 4): 9.2% | inhibition at 0.5 µg/mL ([1]; Test Example 3): 42% | inhibition at 0.5 µg/mL ([1]; Test Example 4): 42% | inhibition at 1 µg/mL ([1]; Test Example 3): 76% | inhibition at 1 µg/mL ([1]; Test Example 4): 76% | inhibition at 2 µg/mL ([1]; Test Example 3): 86% | inhibition at 2 µg/mL ([1]; Test Example 4): 86% | inhibition at 4 µg/mL ([1]; Test Example 3): 94% | inhibition at 4 µg/mL ([1]; Test Example 4): 94% | inhibition at 0.0156 µg/mL ([2]; read-out: Inhibition rate, single use, 0.0156 μg/mL, Test Example 1): 1.9% | inhibition at 0.0313 µg/mL ([2]; read-out: Inhibition rate, single use, 0.0313 μg/mL, Test Example 1): 6.7% | inhibition at 0.0625 µg/mL ([2]; Test Example 1): 9.7% | inhibition at 0.0625 µg/mL ([2]; Test Example 2): 6.2% | inhibition at 0.125 µg/mL ([2]; Test Example 1): 27% | inhibition at 0.125 µg/mL ([2]; Test Example 2): 17% | inhibition at 0.25 µg/mL ([2]; Test Example 1): 43% | inhibition at 0.25 µg/mL ([2]; Test Example 2): 34% | inhibition at 0.5 µg/mL ([2]; Test Example 1): 60% | inhibition at 0.5 µg/mL ([2]; Test Example 2): 64% | inhibition at 1 µg/mL ([2]; Test Example 1): 85% | inhibition at 1 µg/mL ([2]; Test Example 2): 77% | inhibition at 2 µg/mL ([2]; Test Example 1): 93% | inhibition at 2 µg/mL ([2]; Test Example 2): 89% | inhibition at 4 µg/mL ([2]; read-out: Inhibition rate, single use, 4 μg/mL, Test Example 1): 100%

CC(=O)N[C@H]1[C@H]([C@H](O)[C@H](O)CO)OC(C(=O)O)=C[C@@H]1N=C(N)N [Zanamivir, zanamivir]
inhibition at 0.0125 µg/mL ([1]; Test Example 4): 7.4% | inhibition at 0.025 µg/mL ([1]; Test Example 4): 14% | inhibition at 0.05 µg/mL ([1]; Test Example 4): 27% | inhibition at 0.1 µg/mL ([1]; Test Example 4): 40% | inhibition at 0.2 µg/mL ([1]; Test Example 4): 60% | inhibition at 0.4 µg/mL ([1]; 0.4 μg/mL, Test Example 4): 71% | inhibition at 0.8 µg/mL ([1]; 0.8 μg/mL, Test Example 4): 81% | inhibition at 0.0031 µg/mL ([2]; read-out: Inhibition rate, single use, 0.0031 μg/mL, Test Example 2): 6.2% | inhibition at 0.00625 µg/mL ([2]; Test Example 2): 12% | inhibition at 0.0125 µg/mL ([2]; Test Example 2): 23% | inhibition at 0.025 µg/mL ([2]; Test Example 2): 28% | inhibition at 0.05 µg/mL ([2]; Test Example 2): 49% | inhibition at 0.1 µg/mL ([2]; Test Example 2): 60% | inhibition at 0.2 µg/mL ([2]; Test Example 2): 67% | inhibition at 0.4 µg/mL ([2]; Test Example 2): 75%
